In PubChem BioAssay (NCI):
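Exposure lasted 48 hours, with cells grown in 96-well plates and compounds tested at five concentrations. Here, GI50 denotes the concentration required for 50% inhibition of growth. Definition used: TGI = concentration required for complete inhibition of growth.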

Columns and labels:
Experiment in all cases: inhibition of tumour cell growth, NCI panel, 48 h
[1] = system: A549 NSCLC
[2] = system: SF-539 CNS
[3] = system: DU-145 prostate
[4] = system: SF-268 CNS
[5] = system: UO-31 renal
[6] = system: OVCAR-4 ovarian
[7] = system: SNB-75 CNS
[8] = system: LOX IMVI melanoma
[9] = system: T-47D breast
[10] = system: NCI/ADR-RES ovarian

C[C@H](O)C(=O)N1CCC(CCn2c(Sc3cc4c(cc3Br)OCO4)nc3c(N)ncnc32)CC1
GI50 [1]: 0.869 µM
TGI [1]: > 100 µM
GI50 [2]: 1.73 µM
TGI [2]: > 100 µM
GI50 [3]: 0.642 µM
TGI [3]: > 100 µM
GI50 [4]: 8.83 µM
TGI [4]: > 100 µM
GI50 [5]: 2.05 µM
TGI [5]: > 100 µM
GI50 [6]: > 20.1 µM
TGI [6]: > 100 µM
GI50 [7]: 9.04 µM
TGI [7]: > 100 µM
GI50 [8]: 0.596 µM
TGI [8]: 6.9 µM
GI50 [9]: 2.15 µM
TGI [9]: > 100 µM
GI50 [10]: 13.9 µM
TGI [10]: > 100 µM

CC1=C[C@H]2c3c(c(O)c(O)c4oc(-c5ccccc5)cc(=O)c34)[C@H](c3cc(O)c(O)c4oc(-c5ccccc5)cc(=O)c34)[C@H]2C(C)(C)C1
GI50 [1]: 0.29 µM
TGI [1]: 13.8 µM
GI50 [2]: 0.364 µM
TGI [2]: 7.52 µM
GI50 [3]: 0.408 µM
TGI [3]: > 75 µM
GI50 [4]: 0.541 µM
TGI [4]: 17 µM
GI50 [5]: 0.527 µM
TGI [5]: 2 µM
GI50 [6]: 1.56 µM
TGI [6]: 9.55 µM
GI50 [7]: 0.286 µM
TGI [7]: 5.76 µM
GI50 [8]: 0.395 µM
TGI [8]: 1.33 µM
GI50 [9]: 1.02 µM
TGI [9]: 17.1 µM
GI50 [10]: 3.55 µM
TGI [10]: 25.3 µM

COc1cc(/C=C/c2ccc(OC)c(OC)c2)cc(OC)c1
TGI [1]: > 100 µM
TGI [2]: > 100 µM
TGI [3]: > 100 µM
TGI [4]: > 100 µM
TGI [5]: 83.1 µM
TGI [6]: > 100 µM
TGI [7]: > 100 µM
TGI [8]: 41.8 µM
TGI [9]: > 100 µM
TGI [10]: 60 µM

CN(C)CCN1C(=O)c2ccc3c4c(ccc(c24)C1=O)C(=O)N(CCN=C=S)C3=O
GI50 [1]: 0.0739 µM
TGI [1]: 0.252 µM
GI50 [2]: 0.0482 µM
TGI [2]: 0.212 µM
GI50 [3]: 0.0415 µM
TGI [3]: 0.149 µM
GI50 [4]: 0.0466 µM
TGI [4]: 0.29 µM
GI50 [5]: 0.0281 µM
TGI [5]: 0.157 µM
GI50 [6]: 0.13 µM
TGI [6]: 0.365 µM
GI50 [7]: 0.058 µM
TGI [7]: 0.198 µM
GI50 [8]: 0.0352 µM
TGI [8]: 0.127 µM
GI50 [9]: 0.0299 µM
TGI [9]: 0.165 µM
GI50 [10]: 0.0524 µM
TGI [10]: 0.495 µM

Nc1ccn(C2CCC(CO)O2)c(=O)n1 (centres undefined)
GI50 [1]: > 1000 µM
TGI [1]: > 1000 µM
GI50 [2]: > 1000 µM
TGI [2]: > 1000 µM
TGI [3]: > 1000 µM
GI50 [4]: > 1000 µM
TGI [4]: > 1000 µM
TGI [5]: > 1000 µM
GI50 [6]: > 1000 µM
TGI [6]: > 1000 µM
GI50 [7]: > 1000 µM
TGI [7]: > 1000 µM
GI50 [8]: > 1000 µM
TGI [8]: > 1000 µM
TGI [9]: > 1000 µM
TGI [10]: > 1000 µM

CC(C)(C[C@H]1CN(S(=O)(=O)c2cccc(C(F)(F)F)c2)c2cc(-c3cc(F)cc(OC(F)F)c3)ccc2O1)C(=O)O
GI50 [1]: 4.85 µM
TGI [1]: 17.9 µM
GI50 [2]: 5.41 µM
TGI [2]: 19.1 µM
GI50 [3]: 12.4 µM
TGI [3]: 25.3 µM
GI50 [4]: 10.3 µM
TGI [4]: 24.7 µM
GI50 [5]: 10.8 µM
TGI [5]: 23.4 µM
GI50 [6]: 13.2 µM
TGI [6]: 41.7 µM
GI50 [7]: 5.31 µM
TGI [7]: 23.4 µM
GI50 [8]: 6.54 µM
TGI [8]: 22.5 µM
GI50 [9]: 5.19 µM
TGI [9]: 29.2 µM
GI50 [10]: 5.07 µM
TGI [10]: 30.9 µM

O=c1cccc(C#CC#CC2=CCCCC2)o1
GI50 [1]: 10.1 µM
TGI [1]: > 47.7 µM
GI50 [2]: 0.235 µM
TGI [2]: 3.04 µM
GI50 [3]: 1.96 µM
TGI [3]: 4.4 µM
GI50 [4]: 9.15 µM
TGI [4]: 20.6 µM
GI50 [5]: 3.99 µM
TGI [5]: 11 µM
GI50 [6]: 28 µM
TGI [6]: > 49.3 µM
GI50 [7]: 7.1 µM
TGI [7]: 36.8 µM
GI50 [8]: 3.09 µM
GI50 [9]: 2.73 µM
TGI [9]: 14.8 µM
GI50 [10]: 6.99 µM
TGI [10]: 20.4 µM

CCSc1nc(SCC)c2cn[nH]c2n1
GI50 [1]: 46.5 µM
TGI [1]: > 100 µM
GI50 [2]: 21.8 µM
TGI [2]: 82.9 µM
GI50 [3]: 30.6 µM
TGI [3]: > 100 µM
GI50 [4]: 26.3 µM
TGI [4]: 77.5 µM
GI50 [5]: 34.9 µM
TGI [5]: > 100 µM
GI50 [6]: 84.1 µM
TGI [6]: > 100 µM
GI50 [7]: > 100 µM
TGI [7]: > 100 µM
GI50 [8]: 57.1 µM
TGI [8]: > 100 µM
GI50 [9]: 34.2 µM
TGI [9]: > 100 µM
GI50 [10]: > 100 µM
TGI [10]: > 100 µM

CCn1c(-c2ccc(OC(C)=O)cc2)c(C)c2cc(OC(C)=O)ccc21
TGI [1]: 67.9 µM
TGI [2]: 43.5 µM
TGI [3]: 43.3 µM
TGI [4]: 58.5 µM
TGI [5]: 47.9 µM
TGI [6]: 59.8 µM
TGI [7]: 50.2 µM
TGI [8]: 30.6 µM
TGI [9]: 60.5 µM
TGI [10]: > 100 µM

O=c1cc(NC2CCN(CCCc3ccccc3)CC2)c2cc(Cl)ccc2o1
GI50 [1]: 13.4 µM
TGI [1]: 28.6 µM
GI50 [2]: 12.3 µM
TGI [2]: 25.3 µM
GI50 [3]: 15.8 µM
TGI [3]: 29.3 µM
GI50 [4]: 14.3 µM
TGI [4]: 28.3 µM
GI50 [5]: 4.39 µM
TGI [5]: 17.8 µM
GI50 [6]: 13.2 µM
TGI [6]: 35.6 µM
GI50 [7]: 8.1 µM
TGI [7]: 21.1 µM
GI50 [8]: 5.8 µM
TGI [8]: 19.2 µM
GI50 [9]: 12.5 µM
TGI [9]: 38.4 µM
GI50 [10]: 15 µM
TGI [10]: 30.4 µM

O=c1c2ccccc2c(=O)c2c1[nH]c1c(-c3ccccc3)c(-c3ccccc3)c(=O)c12
GI50 [1]: 2.07 µM
TGI [1]: 6.6 µM
GI50 [2]: 1.85 µM
TGI [2]: 3.74 µM
GI50 [3]: 2.71 µM
TGI [3]: 9.44 µM
GI50 [4]: 4.48 µM
TGI [4]: > 100 µM
GI50 [5]: 1.75 µM
TGI [5]: 5.55 µM
GI50 [6]: 6.43 µM
TGI [6]: > 100 µM
GI50 [7]: 15.1 µM
TGI [7]: 52.1 µM
GI50 [8]: 2.55 µM
TGI [8]: 6.2 µM
GI50 [9]: 1.8 µM
TGI [9]: 7.76 µM
GI50 [10]: 3.76 µM
TGI [10]: 21.7 µM

O=S(=O)(Nc1cc(Sc2cccc3cccnc23)c(O)c2ccccc12)c1ccccc1
GI50 [1]: 0.747 µM
TGI [1]: 18.1 µM
GI50 [2]: 0.957 µM
TGI [2]: 5.13 µM
GI50 [3]: 0.828 µM
TGI [3]: 9.83 µM
GI50 [4]: 1.48 µM
TGI [4]: 12.8 µM
GI50 [5]: 0.734 µM
TGI [5]: 4.76 µM
GI50 [6]: 0.474 µM
TGI [6]: 1.75 µM
GI50 [7]: 3.23 µM
TGI [7]: 16.9 µM
GI50 [8]: 0.522 µM
TGI [8]: 10.1 µM
GI50 [9]: 1.56 µM
TGI [9]: 4.79 µM
GI50 [10]: 0.931 µM
TGI [10]: 11 µM

C/C(N=NC(=S)N(C)C)=C1\C=CC=CN1O
TGI [1]: > 100 µM
GI50 [2]: < 0.1 µM
TGI [2]: > 100 µM
TGI [3]: > 100 µM
TGI [4]: > 100 µM
TGI [5]: > 97.4 µM
TGI [6]: > 100 µM
TGI [7]: > 100 µM
TGI [8]: > 100 µM
TGI [9]: > 100 µM
TGI [10]: 21.1 µM

O=C(/C=C\c1ccc(NCc2ccc(C(=O)O)cc2)cc1)CCl
GI50 [1]: 17.2 µM
TGI [1]: 33 µM
GI50 [2]: 15.5 µM
TGI [2]: 29.3 µM
GI50 [3]: 17.3 µM
TGI [3]: 31.9 µM
GI50 [4]: 10.6 µM
TGI [4]: 24.7 µM
GI50 [5]: 14.6 µM
TGI [5]: 29.2 µM
GI50 [6]: 13.9 µM
TGI [6]: 26.9 µM
GI50 [7]: 13.4 µM
TGI [7]: 26.3 µM
GI50 [8]: 2.17 µM
TGI [8]: 5.12 µM
GI50 [9]: 2.6 µM
TGI [9]: 12.5 µM
GI50 [10]: 17.8 µM
TGI [10]: 39.6 µM

O=C(CCC1OCCO1)Nc1cc(NCc2ccccc2)ccc1OCc1ccccc1
TGI [1]: > 100 µM
TGI [2]: 94.6 µM
TGI [3]: > 100 µM
TGI [4]: > 100 µM
TGI [5]: > 100 µM
TGI [6]: > 100 µM
TGI [7]: > 100 µM
TGI [8]: > 100 µM
TGI [9]: > 100 µM
TGI [10]: > 100 µM

COc1cc(C(=O)c2cc(C)c3[nH]c4ccc(C)cc4c3c2C)cc(OC)c1OC
GI50 [1]: < 0.01 µM
TGI [1]: > 100 µM
GI50 [2]: < 0.01 µM
TGI [2]: < 0.01 µM
GI50 [3]: < 0.01 µM
GI50 [4]: < 0.0186 µM
TGI [4]: > 100 µM
GI50 [5]: < 0.01 µM
TGI [5]: > 100 µM
GI50 [6]: 0.0714 µM
TGI [6]: > 100 µM
GI50 [7]: < 0.01 µM
GI50 [8]: < 0.01 µM
TGI [8]: > 100 µM
GI50 [9]: 0.287 µM
TGI [9]: > 100 µM
GI50 [10]: < 0.01 µM
TGI [10]: > 32.9 µM

Br[C](Br)(Br)[Hg][c]1ccccc1
GI50 [1]: 29.4 µM
TGI [1]: 59.5 µM
GI50 [2]: 18 µM
TGI [2]: 33.7 µM
GI50 [3]: 18.1 µM
TGI [3]: 35 µM
GI50 [4]: 24.1 µM
TGI [4]: 56.2 µM
GI50 [5]: 20.2 µM
TGI [5]: 34.5 µM
GI50 [6]: 19.9 µM
TGI [6]: 41.9 µM
GI50 [7]: 15.8 µM
TGI [7]: 32.6 µM
GI50 [8]: 9.71 µM
TGI [8]: 23.2 µM
GI50 [9]: 9.56 µM
TGI [9]: 43.7 µM
GI50 [10]: 18.3 µM
TGI [10]: 42.2 µM
